# Patent US20210147482A1, “PEPTIDE FOR INHIBITING BONE RESORPTION” (NIBEC CO., LTD., priority 2017, published 2021)
# Tests used:
# mouse skulls [1] = experiment: Calvarial implantation model, bone resorption by RANKL; format: in vivo; details: 20 μg RANKL and 200 μg HBD3-C15 in collagen sheet, day 7
# Description: In order to determine the inhibition of bone destruction by HBD3-C15 in vivo, a calvarial implantation model, a typical bone loss model, was used.
# 20 μg of RANKL, a key cytokine that can destroy bones, was soaked in a collagen sheet and was transplanted alone into mouse skulls, or 20 μg of RANKL and 200 μg of HBD3-C15 were soaked in a collagen sheet and then transplanted into mouse skulls. The mice were sacrificed on day 7 of transplantation, and the degree of skull bone destruction was analyzed by scanning via micro-CT.
# After micro-CT analysis, TRAP staining was performed to determine the number of osteoclasts in the skull.
# [2] = system: mouse-bone-marrow-derived macrophages; experiment: Osteoclast differentiation by TRAP staining; format: cell-based; details: 100 ng/ml RANKL + 0.2, 2, or 20 μg/ml HBD3-C15, 3 days
# Description: In order to evaluate the effect of HBD3-C15, a peptide fragment derived from human beta-defensin-3 (HBD3) on the differentiation of osteoclasts, which are bone destruction cells, mouse-bone-marrow-derived macrophages were used. The bone marrow-derived macrophages that were used were prepared by isolating bone marrow cells from the long bone of mice and culturing the same at 100% humidity and 37° C. in an alpha MEM containing 10% fetal bovine serum, 50 unit/ml of penicillin and 50 μg/ml of streptomycin along with 20 ng/ml of M-CSF for 5 days, while continuously feeding 5% carbon dioxide.
# Mouse-bone-marrow-derived macrophages were seeded at 20,000 cells/well on a 96-well plate, treated with 100 ng/ml of receptor activator of nuclear factor-kappaB ligand (RANKL) alone, or a combination of 100 ng/ml of RANKL and 0.2, 2, or 20 μg/ml of HBD3-C15, and cultured for 3 days. In order to determine the degree of differentiation of osteoclasts, tartrate-resistant acid phosphatase (TRAP) staining was performed, and cells with three or more nuclei having osteoclast activity were counted and statistically analyzed.
# [3] = system: osteoblast cell line MC3T3-E1 (Subclone 4); experiment: Osteoblast differentiation by alkaline phosphate staining; format: cell-based; details: differentiation medium (50 μg/ml ascorbic acid, 10 mM β-glycerophosphate) + 20 μg/ml HBD3-C15, 6 days; FIG. 7
# Description: In order to evaluate the effect of HBD3-C15 on differentiation of osteoblasts, which are bone formation cells, the osteoblast cell line MC3T3-E1 (Subclone 4) was used. The cells were prepared by culturing in alpha-MEM medium without ascorbic acid containing 10% fetal bovine serum, 50 unit/ml of penicillin, and 50 μg/ml of streptomycin at 37° C. and 100% humidity while continuously supplying 5% carbon dioxide.
# MC3T3-E1 cells were seeded at a density of 25,000 cells/well into a 48-well plate, then treated with a differentiation medium alone supplemented with 50 μg/ml of ascorbic acid and 10 mM of β-glycerophosphate, or in combination with 20 μg/ml of HBD3-C15, and cultured for 6 days. Alkaline phosphate staining was performed to determine the differentiation of osteoblasts and images were obtained through a camera mounted on a microscope.
# NFATc1 [4] = experiment: NFATc1 protein expression by immunoblotting; format: cell-based, mouse; details: treated with HBD3-C15 for 48 hours; FIG. 1D
# Description: (§1) In addition, in order to determine changes of the protein expression of c-Fos and NFATc1, the proteins were extracted from mouse-bone-marrow-derived macrophages, treated with HBD3-C15 for 48 hours, and 40 μg of the protein was transferred to the PVDF membrane through an SDS-PAGE gel. Then, immunoblotting was performed using c-Fos and NFATc1-specific antibodies.
# mature osteoclasts = experiment: Destruction of podosome belt of differentiated mature osteoclasts; format: cell-based, mouse; details: 20 μg/ml HBD3-C15 added on day 4 of differentiation, cultured 1 day; FIG. 4
# Description: Thus, in order to determine whether or not HBD3-C15 can inhibit the activity of differentiated mature osteoclasts, mouse-bone-marrow-derived macrophages were treated with 20 ng/ml of M-CSF and 100 ng/ml of RANKL on a cover glass for 4 days to induce differentiation of osteoclasts. The osteoclasts were treated with 20 μg/ml of HBD3-C15 on day 4 of differentiation and cultured for 1 day. The cells were fixed with 4% paraformaldehyde, stained with Alexa-Fluor-488-conjugated phalloidin, washed and nuclei-stained with Hoechst 33258. The degree of staining of cells was observed by confocal microscopy.
# NFATc1 [5] = experiment: NFATc1 RNA expression by RT-PCR; format: cell-based, mouse; details: 20 ng/ml M-CSF, 100 ng/ml RANKL, 20 μg/ml HBD3-C15, 24 hours; FIG. 1D
# Description: (§2) In addition, expression of c-fos and NFATc1, which are well-known key transcription factors for osteoclast differentiation, was determined at protein and RNA levels.
# (§3) Mouse-bone-marrow-derived macrophages were treated with 20 ng/ml of M-CSF and 100 ng/ml of RANKL, or 20 ng/ml of M-CSF, 100 ng/ml of RANKL and 20 μg/ml of HBD3-C15 for 24 hours, RNA was extracted, and the quantified RNA and random primers were reacted at 70° C. for 5 minutes and reacted in the presence of a reverse transcriptase, reverse transcription buffer and dNTPs at 42° C. for 1 hour. The result was amplified by 35 cycles using the synthesized cDNA as a template and using c-Fos and NFATc1-specific oligos as primers in a polymerase chain reaction machine.
# c-Fos [6] = experiment: c-Fos RNA expression by RT-PCR; format: cell-based, mouse; details: 20 ng/ml M-CSF, 100 ng/ml RANKL, 20 μg/ml HBD3-C15, 24 hours; FIG. 1D
# Description: as §2, §3
# c-Fos [7] = experiment: c-Fos protein expression by immunoblotting; format: cell-based, mouse; details: treated with HBD3-C15 for 48 hours; FIG. 1D
# Description: as §1
# [8] = system: osteoclasts cultured from mouse-bone-marrow-derived macrophages on dentin discs; experiment: Bone resorption activity of osteoclasts on dentin discs; format: cell-based; details: 20 ng/ml M-CSF, 100 ng/ml RANKL, 20 μg/ml HBD3-C15, 6 days, FIG. 2
# Description: The osteoclasts were cultured in mouse-bone-marrow-derived macrophages on dentin discs based on the fact that osteoclasts perform all functions thereof in environments enabling bone absorption. Mouse-bone-marrow-derived macrophages were treated with 20 ng/ml of M-CSF and 100 ng/ml of RANKL, or with 20 ng/ml of M-CSF, 100 ng/ml of RANKL and 20 μg/ml of HBD3-C15, and then cultured for 6 days. The bone resorption area and bone resorption depth were imaged by confocal microscopy and total bone resorption depth and bone resorption area were measured by LSM Image Browser software.
# mouse skulls [9] = experiment: Mouse skull resorption induced by A.a.LPS; format: in vivo; details: transplantation of HBD3-C15; FIG. 6
# Description: In addition, lipopolysaccharide of Aggregatibacter actinomycetemcomitans (A.a.LPS), a bacterium known to cause aggressive periodontitis accompanied with rapid alveolar bone loss, induced resorption of mouse skulls, and whether such resorption can be inhibited by HBD3-C15 was determined
# [10] = system: osteoclasts from mouse-derived bone marrow macrophages; experiment: Podosome belt formation in osteoclasts (confocal microscopy); format: cell-based; details: 20 ng/ml M-CSF, 100 ng/ml RANKL, 20 μg/ml HBD3-C15, 5 days; FIG. 3
# Description: Thus, in order to determine whether or not the reduction of osteoclast differentiation by HBD3-C15 is affected by podosome belt formation in osteoclasts, mouse-derived bone marrow macrophages were differentiated on a cover glass. Mouse-bone-marrow-derived macrophages were treated with 20 ng/ml of M-CSF and 100 ng/ml of RANKL, or 20 ng/ml of M-CSF, 100 ng/ml of RANKL and 20 μg/ml of HBD3-C15, and cultured for 5 days. The cells were fixed with 4% paraformaldehyde, stained with Alexa-Fluor-488-conjugated-phalloidin, and washed and stained with Hoechst 33258. The degree of staining of cells was observed by confocal microscopy.
substance,measurement,setting,value
G-K-C-S-T-R-G-R-K-C-C-R-R-K-K [HBD3-C15],number of osteoclasts in the skull (TRAP staining),mouse skulls [1]; FIG. 5C,significantly reduced
same,skull absorbed by RANKL (micro-CT),mouse skulls [1]; FIGS. 5A and 5B,significantly reduced
same,number of TRAP positive cells increased due to RANKL,[2]; FIG. 1A,decreased in a concentration-dependent manner
same,number of cells with three or more nuclei having osteoclast activity,[2]; FIG. 1B,statistically significantly decreased
same,number of cells having ten or more nuclei,[2]; FIG. 1C,significantly decreased
same,degree of differentiation of osteoblasts,[3],no difference in the degree of differentiation
same,NFATc1 protein expression attributable to RANKL,NFATc1 [4],inhibited an increase
same,podosome belt of differentiated mature osteoclasts,mature osteoclasts,incomplete podosome belt
same,expression of NFATc1 (RNA) increased by RANKL,NFATc1 [5],reduced
same,expression of c-Fos (RNA) increased by RANKL,c-Fos [6],reduced
same,c-Fos protein expression attributable to RANKL,c-Fos [7],inhibited an increase
same,increase in bone resorption area attributable to RANKL,[8],significantly reduced
same,increase in bone resorption depth attributable to RANKL,[8],significantly reduced
same,number of osteoclasts (A.a.LPS model),mouse skulls [9],decreased
same,skull resorption by A.a.LPS,mouse skulls [9],significantly reduced
same,podosome belt formation by RANKL,[10],no clear podosome belt
